# Assay results from patent US20180251425A1, “2,3,5 TRISUBSTITUTED PYRROLE DERIVATIVES AS TOPOISOMERASE INHIBITORS AND THERAPEUTIC USES THEREOF” (UNIVERSITY OF MYSORE, priority 2015, published 2018).
# Experiments:
# [1] = system: Reh; test: Cytotoxicity (MTT / trypan blue) in Reh cells; type: cell-based; conditions: Homo sapiens, read-out: Cytotoxicity IC 50 in μM (Cell lines) Reh
# Protocol: (§1) Human cancer cell lines, K562, MCF7, HeLa and HEK 293T were purchased from National Centre for Cell Science, Pune, India. Cells were grown in RPMI 1640/MEM/DMEM supplemented with 10% heat-inactivated fetal bovine serum (FBS), 100 U/mL of Penicillin, and 100 μg of streptomycin/mL and incubated at 37° C. in a humidified atmosphere containing 5% CO2.
# Nalm6, Molt4 and Reh cells were provided by Dr. Sathees C. Raghavan, Department of Biochemistry, IISc, Bangalore. The cells were grown under the similar culture conditions as mentioned above.
# The human T cell leukemia cell line Molt4, Human acute lymphoblastic leukemia (ALL) cell line Nalm6, Human acute myelocytic leukemia (AML) cell line Reh, chronic myelogenous leukemia (CML) cell line K562, Human breast adenocarcinoma cell lines like MCF7 and human kidney cell line HEK 293T (Human embryonic kidney cell line) were selected for the purpose of preliminary anticancer screening of newly synthesized compounds (ASR1 to ASR15). To check the cytotoxicity, trypan blue dye exclusion assays, MTT assay were employed as described earlier Further, Cell cycle analysis, Mitochondrial membrane potential, Annexin-V FITC staining assay were also performed in order to understand the mode of cell death after treatment with ASR6. Further, ASR6 was also tested for its ability to inhibit topoisomerase I and II activity in vitro.
# (§2) Cytotoxic effect of the newly synthesized compounds against leukemic cells was assessed using 3-(4, 5-dimethyl-2-yl02, 5-diphenyl tetrazolium bromide (MTT) assay. After exposure of compound at different concentration (0.01, 0.1, 0.5, 1, 10, 50 and 100 μM) cells were harvested and transferred into 96 well plate, MTT (5 mg/ml) was added and incubate at 37° C. for 4 h and formazan crystals were dissolved by adding solubilizing agent (10% SDS and 50% dimethyl formamide) for 1 h, finally plate was read at 570 nm (Bio-Rad, USA). Results were represented as inhibition of percentage of cell proliferation in bar diagram (n=3) (FIGS. 1 A, C, E and G).
# To determine the growth inhibitory activity of the drug, 0.5×10^5 cell/ml were plated in 24 well (Biofil, USA.) in 1 ml of complete medium and treated with various concentration of the compound to test, cells were stained with 0.4% trypan blue and counted on a hemocytometer after treatment with compounds at 48 and 72 h time point. Results were represented as number of viable cells/ml in bar diagram (FIGS. 1 B, D, F, and H) (n=3).
# [2] = system: HeLa; test: Cytotoxicity in HeLa cells; type: cell-based; conditions: Homo sapiens, read-out: Cytotoxicity IC 50 in μM (Cell lines) HeLa
# Protocol: as §1
# as §2, with “G). […]” for “G).”
# [3] = target: T1, recombinant human DNA topoisomerase IIα (Homo sapiens, UniProt P11388); test: Topoisomerase IIα DNA relaxation assay; type: biochemical; conditions: 0, 10, 25, 50 and 100 μM, supercoiled pBS-SK+ plasmid, 37° C. 30 min, dose dependent
# T1 construct: purchased TopoGEN; Inc
# T1 sequence (P11388 whole entry): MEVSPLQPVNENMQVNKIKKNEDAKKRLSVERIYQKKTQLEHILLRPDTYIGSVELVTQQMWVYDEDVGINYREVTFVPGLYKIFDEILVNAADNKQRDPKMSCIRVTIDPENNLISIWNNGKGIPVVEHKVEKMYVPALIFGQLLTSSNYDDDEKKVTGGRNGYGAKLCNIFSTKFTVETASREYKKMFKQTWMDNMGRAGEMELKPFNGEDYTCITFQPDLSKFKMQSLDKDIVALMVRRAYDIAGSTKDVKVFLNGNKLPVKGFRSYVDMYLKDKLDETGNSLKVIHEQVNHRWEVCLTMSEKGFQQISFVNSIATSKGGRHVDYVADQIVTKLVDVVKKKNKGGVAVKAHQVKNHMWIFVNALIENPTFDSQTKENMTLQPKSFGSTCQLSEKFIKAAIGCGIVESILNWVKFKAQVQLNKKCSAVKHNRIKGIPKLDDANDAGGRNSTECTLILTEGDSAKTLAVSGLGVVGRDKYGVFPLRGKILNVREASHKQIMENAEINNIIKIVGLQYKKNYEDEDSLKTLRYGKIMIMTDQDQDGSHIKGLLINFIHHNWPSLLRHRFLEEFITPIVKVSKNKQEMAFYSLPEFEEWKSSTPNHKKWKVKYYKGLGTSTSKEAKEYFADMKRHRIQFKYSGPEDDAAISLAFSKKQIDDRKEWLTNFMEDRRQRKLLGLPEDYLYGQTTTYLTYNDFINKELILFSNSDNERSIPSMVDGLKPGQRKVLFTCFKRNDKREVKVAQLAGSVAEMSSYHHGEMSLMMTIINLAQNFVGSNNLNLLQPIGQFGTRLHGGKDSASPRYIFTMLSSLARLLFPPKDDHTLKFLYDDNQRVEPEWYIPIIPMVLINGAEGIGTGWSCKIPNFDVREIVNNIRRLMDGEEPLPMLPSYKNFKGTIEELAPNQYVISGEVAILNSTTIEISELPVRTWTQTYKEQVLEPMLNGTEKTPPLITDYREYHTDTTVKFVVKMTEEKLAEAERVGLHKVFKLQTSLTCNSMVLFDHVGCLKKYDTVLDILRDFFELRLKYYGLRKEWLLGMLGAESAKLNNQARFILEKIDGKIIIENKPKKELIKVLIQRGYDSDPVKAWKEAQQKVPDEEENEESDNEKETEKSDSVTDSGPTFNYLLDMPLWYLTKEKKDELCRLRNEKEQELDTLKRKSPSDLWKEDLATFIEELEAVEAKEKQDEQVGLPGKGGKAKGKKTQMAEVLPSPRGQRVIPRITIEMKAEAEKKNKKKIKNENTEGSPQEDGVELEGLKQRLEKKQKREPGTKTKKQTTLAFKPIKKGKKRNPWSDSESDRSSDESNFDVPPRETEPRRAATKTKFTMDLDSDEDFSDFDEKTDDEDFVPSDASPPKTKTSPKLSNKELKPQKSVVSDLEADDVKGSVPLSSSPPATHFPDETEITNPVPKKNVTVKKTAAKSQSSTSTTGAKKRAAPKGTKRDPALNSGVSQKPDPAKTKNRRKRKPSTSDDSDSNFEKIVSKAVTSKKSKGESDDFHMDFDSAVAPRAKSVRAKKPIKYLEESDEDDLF
# Protocol: The topoisomerase IIα assay was performed, in a reaction mixture containing supercoiled plasmid DNA (pBS-SK+) was isolated using Gen Elute plasmid miniprep kit (Sigma Aldrich), according to manual instructions. ˜200 ng plasmid and two units of recombinant human DNA topoisomerase IIα (TopoGEN. Inc) along with the different concentrations of ASR6 (0, 10, 25, 50 and 100 μM) was added at RT for 5 min; equal amount of DMSO was used as vehicle control. Reaction was carried out at 37° C. for 30 min in a relaxation buffer 1× topo II buffer (50 mM Tris-HCl (pH 8.0), 10 mM NaCl, 10 mM MgCl2, 5 mM ATP, 0.5 mM dithiothreitol and 30 μg BSA/ml) and reactions were terminated by adding 5× stop buffer containing 5% sarkosyl, 0.0025% bromophenol blue, 25% glycerol. The DNA samples were electrophoresed on 1% agarose gel at 45 volts for 4 h with 0.5×TBE (Tris-borate-EDTA). The gels were stained for 30 min in milli Q water containing ethidium bromide (0.5 mg/ml) followed by distaining for 30 min in milli Q water and images were taken. […] VP16 (Topo II inhibitor) were used as positive control (FIG. 6).
structure (smiles),measurement,setting,value
"CCOC(=O)c1[nH]c(-c2ccc(Cl)cc2)cc1-c1cccnc1 [ASR6, Ethyl 5-(4-chlorophenyl)-3-(pyridin-3-yl)-1H-pyrrole-2-carboxylate]",IC50,[1],0.36 µM
same,IC50,[2],0.749 µM
same,Inhibition of topoisomerase IIα activity (DNA relaxation),[3],can inhibit topoisomerase Ha enzymatic activity
